Assay results: patent US12570671B2 (BRISTOL-MYERS SQUIBB COMPANY, priority 2020, dated 2026)

How the values were obtained:
Helios = Helios (Homo sapiens, UniProt Q96SW2+Q9UKS7); assay: Helios Cellular Degradation Assay (Helios readout); type: cell-based; parameters: endogenous in cells; host or cells: Jurkat; conditions: Jurkat cells, 72 h incubation, Helios-PE antibody staining, flow cytometry; read-out: Helios Jurkat IC50
How it was run: (§1)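 Jurkat cells (80,000/well, RPMI+10% FBS) were treated with compound for 72 h at 37° C. After fixation and permeabilization they were stained with fluorescent antibodies to Helios, Ikaros and Aiolos. Intracellular protein levels were quantified by flow cytometry.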

Ikaros = Ikaros (Homo sapiens, UniProt Q13422+Q96SW2); assay: Helios Cellular Degradation Assay (Ikaros readout); type: cell-based; parameters: endogenous in cells; host or cells: Jurkat; conditions: Jurkat cells, 72 h incubation, Ikaros-Alexa488 antibody staining, flow cytometry; read-out: Ikaros Jurkat IC50
How it was run: as §1

Sequence of Ikaros (Q13422 whole entry): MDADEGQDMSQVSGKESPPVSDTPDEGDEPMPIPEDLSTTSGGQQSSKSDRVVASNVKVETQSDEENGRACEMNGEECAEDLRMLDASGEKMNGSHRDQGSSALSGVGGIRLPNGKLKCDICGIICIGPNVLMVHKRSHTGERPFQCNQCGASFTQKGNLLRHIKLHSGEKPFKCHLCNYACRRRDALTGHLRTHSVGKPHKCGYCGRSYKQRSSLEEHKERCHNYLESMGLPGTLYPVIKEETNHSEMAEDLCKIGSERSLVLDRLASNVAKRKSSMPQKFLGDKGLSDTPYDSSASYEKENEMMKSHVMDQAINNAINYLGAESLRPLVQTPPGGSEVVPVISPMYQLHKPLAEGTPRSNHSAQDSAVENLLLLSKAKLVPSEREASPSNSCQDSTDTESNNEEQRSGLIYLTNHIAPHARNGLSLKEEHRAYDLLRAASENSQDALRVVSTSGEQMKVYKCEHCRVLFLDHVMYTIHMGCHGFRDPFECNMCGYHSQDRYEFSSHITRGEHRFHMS
Sequence of Ikaros (Q96SW2 whole entry): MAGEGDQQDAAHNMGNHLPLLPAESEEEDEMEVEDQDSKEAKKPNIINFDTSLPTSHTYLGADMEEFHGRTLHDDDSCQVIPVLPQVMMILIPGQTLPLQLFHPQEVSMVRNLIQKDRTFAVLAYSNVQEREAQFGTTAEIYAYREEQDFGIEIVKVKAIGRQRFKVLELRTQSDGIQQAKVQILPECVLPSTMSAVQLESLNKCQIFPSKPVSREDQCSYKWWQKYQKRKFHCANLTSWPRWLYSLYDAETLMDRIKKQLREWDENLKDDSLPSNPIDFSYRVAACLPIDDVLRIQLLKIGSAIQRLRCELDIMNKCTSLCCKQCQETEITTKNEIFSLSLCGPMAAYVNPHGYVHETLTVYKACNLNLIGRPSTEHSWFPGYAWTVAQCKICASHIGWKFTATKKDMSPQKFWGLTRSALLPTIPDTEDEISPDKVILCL
Sequence of Ikaros (Q16531 whole entry partner): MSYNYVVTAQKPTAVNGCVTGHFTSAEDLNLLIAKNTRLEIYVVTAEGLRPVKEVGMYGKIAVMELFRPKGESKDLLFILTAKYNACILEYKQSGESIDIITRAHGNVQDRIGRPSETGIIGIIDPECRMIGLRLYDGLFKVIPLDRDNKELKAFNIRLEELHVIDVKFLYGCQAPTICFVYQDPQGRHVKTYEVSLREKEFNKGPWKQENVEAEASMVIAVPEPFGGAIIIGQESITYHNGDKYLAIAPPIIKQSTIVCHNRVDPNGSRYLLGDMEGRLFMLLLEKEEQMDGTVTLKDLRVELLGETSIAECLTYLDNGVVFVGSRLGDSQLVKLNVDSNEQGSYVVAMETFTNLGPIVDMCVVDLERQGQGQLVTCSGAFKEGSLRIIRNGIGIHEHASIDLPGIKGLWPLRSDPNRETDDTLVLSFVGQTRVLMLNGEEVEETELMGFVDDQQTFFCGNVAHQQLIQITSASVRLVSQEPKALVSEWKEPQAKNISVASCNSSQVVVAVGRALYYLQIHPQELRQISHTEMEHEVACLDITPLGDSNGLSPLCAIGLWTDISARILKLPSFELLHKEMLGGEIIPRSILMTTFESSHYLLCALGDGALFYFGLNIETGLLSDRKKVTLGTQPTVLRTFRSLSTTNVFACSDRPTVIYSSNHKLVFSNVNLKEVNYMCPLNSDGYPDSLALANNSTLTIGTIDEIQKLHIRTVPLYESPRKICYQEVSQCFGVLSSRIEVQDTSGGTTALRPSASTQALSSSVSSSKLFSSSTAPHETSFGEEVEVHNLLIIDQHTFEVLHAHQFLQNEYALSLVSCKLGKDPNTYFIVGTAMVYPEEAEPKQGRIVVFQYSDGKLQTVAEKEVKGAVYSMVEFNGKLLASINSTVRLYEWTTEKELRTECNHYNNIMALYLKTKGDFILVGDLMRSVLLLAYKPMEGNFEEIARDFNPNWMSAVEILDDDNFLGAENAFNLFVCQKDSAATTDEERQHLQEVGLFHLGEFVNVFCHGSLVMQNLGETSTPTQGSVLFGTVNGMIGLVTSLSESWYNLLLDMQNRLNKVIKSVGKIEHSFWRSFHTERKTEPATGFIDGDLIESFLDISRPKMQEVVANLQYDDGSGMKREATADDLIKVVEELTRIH
Sequence of Helios (Q9UKS7 whole entry): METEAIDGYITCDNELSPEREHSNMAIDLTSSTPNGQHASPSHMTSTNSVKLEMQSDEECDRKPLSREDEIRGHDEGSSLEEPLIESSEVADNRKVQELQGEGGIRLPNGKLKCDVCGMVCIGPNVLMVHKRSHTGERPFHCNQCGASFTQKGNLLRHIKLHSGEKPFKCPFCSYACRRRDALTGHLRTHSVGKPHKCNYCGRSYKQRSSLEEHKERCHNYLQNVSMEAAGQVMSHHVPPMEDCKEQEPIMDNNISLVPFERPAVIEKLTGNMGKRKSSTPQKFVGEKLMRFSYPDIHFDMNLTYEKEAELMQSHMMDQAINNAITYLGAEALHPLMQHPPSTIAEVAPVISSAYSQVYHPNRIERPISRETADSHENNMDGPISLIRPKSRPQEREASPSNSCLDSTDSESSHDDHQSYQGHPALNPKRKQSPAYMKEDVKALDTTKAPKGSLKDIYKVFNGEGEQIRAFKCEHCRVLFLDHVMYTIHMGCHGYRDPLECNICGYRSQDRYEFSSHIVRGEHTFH
Sequence of Helios (Q96SW2 whole entry): as the sequence (Q96SW2 whole entry) above
Sequence of Helios (Q16531 whole entry partner): as the sequence (Q16531 whole entry partner) above

SMILES | DC50 (Helios) | DC50 (Ikaros)
CN1CCc2nc(-c3ccc4c(c3)CN(C3CCC(=O)NC3=O)C4=O)ccc2C1=O (centres unmarked) [Example 92, 3-(5-(6-methyl-5-oxo-5,6,7,8-tetrahydro-1,6-naphthyridin-2-yl)-1-oxoisoindolin-2-yl)piperidine-2,6-dione] | 1500 nM | ≥ 20000 nM
CC(=O)N(C)c1nc(-c2ccc3c(c2)CN(C2CCC(=O)NC2=O)C3=O)cc2ccccc12 (centres unmarked) [Example 52, N-{3-[2-(2,6-Dioxopiperidin-3-yl)-1-oxo-2,3-dihydro-1H-isoindol-5-yl]isoquinolin-1-yl}-N-methylacetamide] | 210 nM | > 20000 nM
C[Si](C)(C)CCn1nnc2c(-c3ccc4c(c3)CN(C3CCC(=O)NC3=O)C4=O)nc(N)nc21 (centres unmarked) [Example 42, 3-(5-{5-amino-3-[2-(trimethylsilyl)ethyl]-3H-[1,2,3]triazolo[4,5-d]pyrimidin-7-yl}-1-oxo-2,3-dihydro-1H-isoindol-2-yl)piperidine-2,6-dione] | 110 nM | 3600 nM
Nc1cn2nc(-c3ccc4c(c3)CN(C3CCC(=O)NC3=O)C4=O)ccc2n1 (centres unmarked) [Example 65, 3-(5-{2-aminoimidazo[1,2-b]pyridazin-6-yl}-1-oxo-2,3-dihydro-1H-isoindol-2-yl)piperidine-2,6-dione] | > 20000 nM | > 20000 nM
CCn1ncc2c(-c3ccc4c(c3)CN(C3CCC(=O)NC3=O)C4=O)nc(N)nc21 (centres unmarked) [Example 45, 3-(5-{6-amino-1-ethyl-1H-pyrazolo[3,4-d]pyrimidin-4-yl}-1-oxo-2,3-dihydro-1H-isoindol-2-yl)piperidine-2,6-dione] | 430 nM | > 20000 nM
Nc1nc(-c2ccc3c(c2)CN(C2CCC(=O)NC2=O)C3=O)cc2ccccc12 (centres unmarked) [Example 4, 3-[5-(1-aminoisoquinolin-3-yl)-1-oxo-2,3-dihydro-1H-isoindol-2-yl]piperidine-2,6-dione] | 6 nM | > 20000 nM
Nc1nc(-c2ccc3c(c2)CN([C@@H]2CCC(=O)NC2=O)C3=O)cc2ccccc12 [Example 83, (3R)-3-[5-(1-aminoisoquinolin-3-yl)-1-oxo-2,3-dihydro-1H-isoindol-2-yl]piperidine-2,6-dione] | 30 nM | ≥ 20000 nM
O=C1CCC(N2Cc3cc(-c4cnc5ccccc5n4)ccc3C2=O)C(=O)N1 (centres unmarked) [Example 7, 3-[1-oxo-5-(quinoxalin-2-yl)-2,3-dihydro-1H-isoindol-2-yl]piperidine-2,6-dione] | 73 nM | > 20000 nM
O=C1CCC(N2Cc3cc(-c4ccc5ncccc5n4)ccc3C2=O)C(=O)N1 (centres unmarked) [Example 21, 3-[5-(1,5-naphthyridin-2-yl)-1-oxo-2,3-dihydro-1H-isoindol-2-yl]piperidine-2,6-dione] | 37 nM | > 20000 nM
CN(C)c1nc(-c2ccc3c(c2)CN(C2CCC(=O)NC2=O)C3=O)cc2ccccc12 (centres unmarked) [Example 49, 3-{5-[1-(Dimethylamino)isoquinolin-3-yl]-1-oxo-2,3-dihydro-1H-isoindol-2-yl}piperidine-2,6-dione] | 37 nM | > 20000 nM
N#Cc1ccnnc1-c1ccc2c(c1)CN(C1CCC(=O)NC1=O)C2=O (centres unmarked) [Example 76, 3-(2-(2,6-dioxopiperidin-3-yl)-1-oxoisoindolin-5-yl)pyridazine-4-carbonitrile] | > 20000 nM | > 20000 nM
Cc1cc(-c2ccc3c(c2)CN(C2CCC(=O)NC2=O)C3=O)nc2ccccc12 (centres unmarked) [Example 24, 3-[5-(4-methylquinolin-2-yl)-1-oxo-2,3-dihydro-1H-isoindol-2-yl]piperidine-2,6-dione] | 9 nM | > 20000 nM
O=C1CCC(N2Cc3cc(-c4cc5ccccc5c(C5CC5)n4)ccc3C2=O)C(=O)N1 (centres unmarked) [Example 89, 3-(5-(1-cyclopropylisoquinolin-3-yl)-1-oxoisoindolin-2-yl)piperidine-2,6-dione] | 2200 nM | ≥ 20000 nM
O=C1CCC(N2Cc3cc(-c4nc5ccccc5nc4Cl)ccc3C2=O)C(=O)N1 (centres unmarked) [Example 93, 3-(5-(3-chloroquinoxalin-2-yl)-1-oxoisoindolin-2-yl)piperidine-2,6-dione] | 17100 nM | ≥ 20000 nM
COc1ccc2c(-c3ccc4c(c3)CN(C3CCC(=O)NC3=O)C4=O)nc(OC)cc2c1 (centres unmarked) [Example 58, 3-[5-(3,6-dimethoxyisoquinolin-1-yl)-1-oxo-2,3-dihydro-1H-isoindol-2-yl]piperidine-2,6-dione] | 1 nM | 9 nM
O=C1CCC(N2Cc3cc(-c4cc(O)c5ccccc5n4)ccc3C2=O)C(=O)N1 (centres unmarked) [Example 37, 3-[5-(4-hydroxyquinolin-2-yl)-1-oxo-2,3-dihydro-1H-isoindol-2-yl]piperidine-2,6-dione] | 2400 nM | > 20000 nM
CCN(CC)c1nc(-c2ccc3c(c2)CN(C2CCC(=O)NC2=O)C3=O)nc2ccc(Cl)cc12 (centres unmarked) [Example 15, 3-{5-[6-chloro-4-(diethylamino)quinazolin-2-yl]-1-oxo-2,3-dihydro-1H-isoindol-2-yl}piperidine-2,6-dione] | > 20000 nM | > 20000 nM

Further lines, results first:

DC50 (Helios) | DC50 (Ikaros) | SMILES
830 nM | ≥ 10000 nM | O=C1CCC(N2Cc3cc(-c4cc(CO)ccn4)ccc3C2=O)C(=O)N1 (centres unmarked) [Example 108, 3-(5-(4-(hydroxymethyl)pyridin-2-yl)-1-oxoisoindolin-2-yl)piperidine-2,6-dione]
40 nM | ≥ 20000 nM | COc1cc(N)nc(-c2ccc3c(c2)CN(C2CCC(=O)NC2=O)C3=O)c1 (centres unmarked) [Example 164, 3-(5-(6-amino-4-methoxypyridin-2-yl)-1-oxoisoindolin-2-yl)piperidine-2,6-dione]
40 nM | ≥ 10000 nM | CCNc1cc(C)cc(-c2ccc3c(c2)CN(C2CCC(=O)NC2=O)C3=O)n1 (centres unmarked) [Example 188, 3-(5-(6-(Ethylamino)-4-methylpyridin-2-yl)-1-oxoisoindolin-2-yl)piperidine-2,6-dione]
10 nM | ≥ 10000 nM | CNc1cc(C)cc(-c2ccc3c(c2)CN(C2CCC(=O)NC2=O)C3=O)n1 (centres unmarked) [Example 187, 3-(5-(4-Methyl-6-(methylamino)pyridin-2-yl)-1-oxoisoindolin-2-yl)piperidine-2,6-dione]
5330 nM | ≥ 20000 nM | COc1cccc(-c2ccc3c(c2)CN(C2CCC(=O)NC2=O)C3=O)n1 (centres unmarked) [Example 155, 3-[5-(6-Methoxypyridin-2-yl)-1-oxo-2,3-dihydro-1H-isoindol-2-yl]piperidine-2,6-dione]
20 nM | ≥ 10000 nM | Cc1cc(C#N)c(-c2ccc3c(c2)CN(C2CCC(=O)NC2=O)C3=O)nc1N (centres unmarked) [Example 180, 6-amino-2-(2-(2,6-dioxopiperidin-3-yl)-1-oxoisoindolin-5-yl)-5-methylnicotinonitrile]
110 nM | 310 nM | CCNc1nc2ccccc2nc1-c1ccc2c(c1)CN(C1CCC(=O)NC1=O)C2=O (centres unmarked) [Example 95, 3-(5-(3-(ethylamino)quinoxalin-2-yl)-1-oxoisoindolin-2-yl)piperidine-2,6-dione]
70 nM | ≥ 20000 nM | O=C1CCC(N2Cc3cc(-c4nccc5[nH]ccc45)ccc3C2=O)C(=O)N1 (centres unmarked) [Example 160, 3-(1-oxo-5-(1H-pyrrolo[3,2-c]pyridin-4-yl)isoindolin-2-yl)piperidine-2,6-dione]
180 nM | ≥ 10000 nM | O=C1CCC(N2Cc3cc(-c4ccc5c(n4)NCCN5)ccc3C2=O)C(=O)N1 (centres unmarked) [Example 118, 3-(1-oxo-5-(1,2,3,4-tetrahydropyrido[2,3-b]pyrazin-6-yl)isoindolin-2-yl)piperidine-2,6-dione]
100 nM | 160 nM | O=C1CCC(N2Cc3cc(-c4cc5c(cn4)CCCC5)ccc3C2=O)C(=O)N1 (centres unmarked) [Example 115, 3-(1-oxo-5-(5,6,7,8-tetrahydroisoquinolin-3-yl)isoindolin-2-yl)piperidine-2,6-dione]
190 nM | ≥ 20000 nM | COc1cc(C)cc(-c2ccc3c(c2)CN(C2CCC(=O)NC2=O)C3=O)n1 (centres unmarked) [Example 146, 3-(5-(6-methoxy-4-methylpyridin-2-yl)-1-oxoisoindolin-2-yl)piperidine-2,6-dione]
2460 nM | ≥ 20000 nM | N#Cc1cccc(-c2ccc3c(c2)CN(C2CCC(=O)NC2=O)C3=O)n1 (centres unmarked) [Example 162, 6-(2-(2,6-dioxopiperidin-3-yl)-1-oxoisoindolin-5-yl)picolinonitrile]
10 nM | ≥ 20000 nM | Nc1ccc2c(-c3ccc4c(c3)CN(C3CCC(=O)NC3=O)C4=O)nccc2c1 (centres unmarked) [Example 133, 3-[5-(6-aminoisoquinolin-1-yl)-1-oxo-2,3-dihydro-1H-isoindol-2-yl]piperidine-2,6-dione]
83 nM | ≥ 20000 nM | Cc1cc(C)nc(-c2ccc3c(c2)CN(C2CCC(=O)NC2=O)C3=O)c1 (centres unmarked) [Example 144, 3-(5-(4,6-dimethylpyridin-2-yl)-1-oxoisoindolin-2-yl)piperidine-2,6-dione]
10 nM | ≥ 10000 nM | O=C1CCC(N2Cc3cc(-c4ccc5c(n4)NCCC5)ccc3C2=O)C(=O)N1 (centres unmarked) [Example 137, 3-[1-oxo-5-(5,6,7,8-tetrahydro-1,8-naphthyridin-2-yl)-2,3-dihydro-1H-isoindol-2-yl]piperidine-2,6-dione]
20 nM | 90 nM | O=C1CCC(N2Cc3cc(-c4nccc5c4ccn5Cc4ccccc4)ccc3C2=O)C(=O)N1 (centres unmarked) [Example 161, 3-(5-(1-benzyl-1H-pyrrolo[3,2-c]pyridin-4-yl)-1-oxoisoindolin-2-yl)piperidine-2,6-dione]
10 nM | 90 nM | CN(C)c1cnc(-c2ccc3c(c2)CN(C2CCC(=O)NC2=O)C3=O)c2cc(Cl)ccc12 (centres unmarked) [Example 129, 3-{5-[7-chloro-4-(dimethylamino)isoquinolin-1-yl]-1-oxo-2,3-dihydro-1H-isoindol-2-yl}piperidine-2,6-dione]
